# Key:
# NDM-1 strains = test: MIC of meropenem in various concentrations of NDM-1 PPMO; type: cell-based, K. pneumoniae; conditions: Klebsiella pneumoniae; meropenem without PPMO
# K. pneumoniae = test: MIC of meropenem in various concentrations of KPC PPMO; conditions: Klebsiella pneumoniae, read-out: MIC of meropenem
# E. coli BW25113 = type: cell-based; conditions: Pip/Tazo alone, 18 h, MHII
# Pseudomonas aeruginosa = conditions: 18 hours
# Description: Strains were grown on MSEC biofilm plates for 18 hours in the presence of PMBN at 2 μg/ml and the PPMO, a scrambled PPMO or nothing. The numbers in each cell represent the concentration of PPMO that reduced biofilm by 50% or greater.
# Pseudomonas biofilms were grown in the presence or absence of PPMOs (as indicated). Biofilms were grown for 18 hours and then stained with crystal violet. Three strains were tested with multiple PPMO doses as shown. Percent reduction compared to no PPMO control is shown.
# Polymyxin B nonapeptide (PMBN) was used at sub-inhibitory concentrations to enhance delivery of PPMOs in Pseudomonas.
compound,measurement,setting,value
C[C@@H](O)[C@H]1C(=O)N2C(C(=O)O)=C(S[C@@H]3CN[C@H](C(=O)N(C)C)C3)[C@H](C)[C@H]12 [meropenem],MIC,NDM-1 strains,64 µg/mL
same,MIC,K. pneumoniae,32 µg/mL
Piperacillin/Tazobactam [Pip/Tazo],MIC,E. coli BW25113,4 µg/mL
Polymyxin B nonapeptide [PMBN],effect on biofilm formation,Pseudomonas aeruginosa,did not significantly alter biofilm formation

# Source: US10907158B2, “Antisense antibacterial compounds and methods” (priority 2015, dated 2021)
